Assay results from patent publication US20250002487A1, “HETEROCYCLIC COMPOUNDS AND USES THEREOF” (Ventus Therapeutics U.S., Inc., priority 2021, published 2025).

Target: human-cGAS (h-cGAS) (Homo sapiens, UniProt Q8N884)
Experiment: hcGAS Kinase-Glo Assay
Format: biochemical
Conditions: 40 nM h-cGAS, 100 μM ATP, 100 μM GTP, 25 nM dsDNA, 3 h incubation, read-out: hcGAS potency IC50
Experimental: In some embodiments, the compounds of the instant disclosure may be tested for their human-cGAS (h-cGAS) inhibition activity using the methodology reported in Lama et al., “Development of human cGAS-specific small molecule inhibitors for repression of double stranded DNA (dsDNA)-triggered interferon expression”, Nature Communications 10, Article number: 2261 (2019), incorporated herein by reference. hcGAS Kinase-Glo Assay Compounds were tested for their human-cGAS (h-cGAS) inhibition activity using the methodology reported in Lama et al., “Development of human cGAS-specific small molecule inhibitors for repression of double stranded DNA (dsDNA)-triggered interferon expression”, Nature Communications 10. Article number: 2261 (2019), which is herein incorporated by reference in its entirety, with slight changes to some conditions as shown in Table B. The results of the assays, expressed in IC50 ranges are reported in Table C with the following designations: A represents an IC50 value <0.1 μM; B represents an IC50 value ≥0.1 μM and <0.5 μM; C represents an IC50 value ≥0.5 μM and <1.0 μM; D represents an IC50 value ≥1.0 μM. [table]

Sequence of human-cGAS (h-cGAS) (Q8N884 whole entry): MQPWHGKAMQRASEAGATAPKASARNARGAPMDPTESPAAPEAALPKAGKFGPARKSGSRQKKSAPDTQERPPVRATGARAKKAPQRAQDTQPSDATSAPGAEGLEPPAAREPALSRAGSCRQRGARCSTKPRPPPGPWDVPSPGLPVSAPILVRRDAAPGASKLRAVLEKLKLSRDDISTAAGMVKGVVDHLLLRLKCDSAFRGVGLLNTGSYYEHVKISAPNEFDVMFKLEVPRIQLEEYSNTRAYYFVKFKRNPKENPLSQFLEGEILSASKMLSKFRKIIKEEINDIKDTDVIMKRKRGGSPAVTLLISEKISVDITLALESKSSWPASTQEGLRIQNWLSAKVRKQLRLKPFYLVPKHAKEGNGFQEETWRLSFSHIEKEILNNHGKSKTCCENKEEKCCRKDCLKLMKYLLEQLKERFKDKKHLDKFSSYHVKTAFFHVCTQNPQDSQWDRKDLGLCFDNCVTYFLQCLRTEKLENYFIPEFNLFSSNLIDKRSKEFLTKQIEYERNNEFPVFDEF

Compound	IC50
COc1ccc(Cc2ccc3noc(C(=O)Nc4nnc(SC)s4)c3c2)cc1O [Compound 187, 5-(3-hydroxy-4-methoxybenzyl)-N-(5-(methylthio)-1,3,4-thiadiazol-2-yl)benzo[c]isoxazole-3-carboxamide]	≥ 1000 nM
CSc1nnc(NC(=O)c2nnc(N3CCNC(=O)C3)o2)s1 [Compound 124, N-(5-(methylthio)-1,3,4-thiadiazol-2-yl)-5-(3-oxopiperazin-1-yl)-1,3,4-oxadiazole-2-carboxamide]	≥ 1000 nM
O=C(Nc1nnc(-c2ccccc2Cl)s1)c1nnn[nH]1 [Compound 60, N-(5-(2-chlorophenyl)-1,3,4-thiadiazol-2-yl)-1H-tetrazole-5-carboxamide]	≥ 1000 nM
COCCOc1cc(C(=O)Nc2nnc(-c3ccccc3Cl)s2)on1 [Compound 175, N-(5-(2-chlorophenyl)-1,3,4-thiadiazol-2-yl)-3-(2-methoxyethoxy)isoxazole-5-carboxamide]	100 to 500 nM
CSc1nnc(NC(=O)c2cc(-c3cc(F)ccc3F)no2)s1 [Compound 47, 3-(2,5-difluorophenyl)-N-(5-(methylthio)-1,3,4-thiadiazol-2-yl)isoxazole-5-carboxamide]	500 to 1000 nM
CSc1nnc(NC(=O)c2cc(-c3ccc4cccnc4c3)cc(=O)o2)s1 [Compound 270, N-(5-(methylthio)-1,3,4-thiadiazol-2-yl)-2-oxo-4-(quinolin-7-yl)-2H-pyran-6-carboxamide]	100 to 500 nM
Cn1nccc1-c1nnc(NC(=O)c2onc3ccccc23)s1 [Compound 146, N-(5-(1-methyl-1H-pyrazol-5-yl)-1,3,4-thiadiazol-2-yl)benzo[c]isoxazole-3-carboxamide]	≥ 1000 nM
O=C(Nc1nnc(-c2cccc(O)c2)s1)c1onc2ccccc12 [Compound 30, N-(5-(3-hydroxyphenyl)-1,3,4-thiadiazol-2-yl)benzo[c]isoxazole-3-carboxamide]	≥ 1000 nM
CSc1nnc(NC(=O)c2cc(-c3ccnc4ccccc34)cc(=O)o2)s1 [Compound 247, N-(5-methylsulfanyl-1,3,4-thiadiazol-2-yl)-6-oxo-4-(4-quinolyl)pyran-2-carboxamide]	500 to 1000 nM
O=C(Nc1nnc(-c2ccccn2)s1)c1onc2ccccc12 [Compound 21, N-(5-(pyridin-2-yl)-1,3,4-thiadiazol-2-yl)benzo[c]isoxazole-3-carboxamide]	500 to 1000 nM
O=C(NO)c1cc(C(=O)Nc2nnc(-c3ccccc3Cl)s2)on1 [Compound 90, N5-(5-(2-chlorophenyl)-1,3,4-thiadiazol-2-yl)-N3-hydroxyisoxazole-3,5-dicarboxamide]	100 to 500 nM
CSc1nnc(NC(=O)c2noc3c2CCc2cccnc2-3)s1 [Compound 180, N-(5-(methylthio)-1,3,4-thiadiazol-2-yl)-4,5-dihydroisoxazolo[4,5-h]quinoline-3-carboxamide]	500 to 1000 nM
O=C(Nc1nnc(-c2ccccc2Cl)s1)c1cc(C2CCOCC2)no1 [Compound 38, N-(5-(2-chlorophenyl)-1,3,4-thiadiazol-2-yl)-3-(tetrahydro-2H-pyran-4-yl)isoxazole-5-carboxamide]	100 to 500 nM
CSc1nnc(NC(=O)c2cc(-c3ccc(Cl)cc3)cc(=O)o2)s1 [Compound 243, 4-(4-chlorophenyl)-N-(5-methylsulfanyl-1,3,4-thiadiazol-2-yl)-6-oxo-pyran-2-carboxamide]	500 to 1000 nM
O=C(Nc1nnc(-c2ccccc2Cl)s1)c1cc(C(F)F)no1 [Compound 35, N-(5-(2-chlorophenyl)-1,3,4-thiadiazol-2-yl)-3-(difluoromethyl)isoxazole-5-carboxamide]	500 to 1000 nM
O=C(Nc1nnc(-c2ccccc2Cl)s1)c1onc2ccccc12 [Compound 22, N-(5-(2-chlorophenyl)-1,3,4-thiadiazol-2-yl)benzo[c]isoxazole-3-carboxamide]	100 to 500 nM
CSc1nnc(NC(=O)c2onc3c2ccc2ncccc23)s1 [Compound 271, N-(5-(methylthio)-1,3,4-thiadiazol-2-yl)isoxazolo[3,4-f]quinoline-3-carboxamide]	500 to 1000 nM
CSc1nnc(NC(=O)c2cc(-c3ccc(F)cc3F)no2)s1 [Compound 48, 3-(2,4-difluorophenyl)-N-(5-(methylthio)-1,3,4-thiadiazol-2-yl)isoxazole-5-carboxamide]	500 to 1000 nM

The remaining lines, values ahead:

IC50	Compound
100 to 500 nM	O=C(Nc1nnc(-c2ccccn2)s1)c1onc2c1ccc1cccnc12 [Compound 10, N-(5-(pyridin-2-yl)-1,3,4-thiadiazol-2-yl)isoxazolo[4,3-h]quinoline-3-carboxamide]
500 to 1000 nM	CSc1nnc(NC(=O)c2onc(C)c2C)s1 [Compound 242, 3,4-dimethyl-N-(5-methylsulfanyl-1,3,4-thiadiazol-2-yl)isoxazole-5-carboxamide]
< 100 nM	O=C(Nc1nnc(-c2ccccc2Cl)s1)c1ccc(O)c(=O)o1 [Compound 64, N-(5-(2-chlorophenyl)-1,3,4-thiadiazol-2-yl)-3-hydroxy-2-oxo-2H-pyran-6-carboxamide]
≥ 1000 nM	O=C(Nc1nnc(-c2cccc(Cl)c2)s1)c1onc2ccccc12 [Compound 23, N-(5-(3-chlorophenyl)-1,3,4-thiadiazol-2-yl)benzo[c]isoxazole-3-carboxamide]
< 100 nM	O=C(Nc1nnc(-c2ccccc2Cl)s1)c1cc(O)no1 [Compound 55, N-(5-(2-chlorophenyl)-1,3,4-thiadiazol-2-yl)-3-hydroxyisoxazole-5-carboxamide]
500 to 1000 nM	CSc1nnc(NC(=O)c2onc3ccc(Oc4ccccc4)cc23)s1 [Compound 165, N-(5-(methylthio)-1,3,4-thiadiazol-2-yl)-5-phenoxybenzo[c]isoxazole-3-carboxamide]
100 to 500 nM	Cc1ccnc(-c2cc(C(=O)Nc3nnc(-c4ccccc4Cl)s3)on2)n1 [Compound 157, N-(5-(2-Chlorophenyl)-1,3,4-thiadiazol-2-yl)-3-(4-methylpyrimidin-2-yl)isoxazole-5-carboxamide]
≥ 1000 nM	O=C(O)Cc1nnc(NC(=O)c2onc3ccccc23)s1 [Compound 132, [5-(2,1-benzoxazole-3-amido)-1,3,4-thiadiazol-2-yl]acetic acid]
100 to 500 nM	CSc1nnc(NC(=O)c2onc3c2ccc2ccccc23)s1 [Compound 220, N-[5-(methylsulfanyl)-1,3,4-thiadiazol-2-yl]naphtho[1,2-c][1,2]oxazole-3-carboxamide]
500 to 1000 nM	CSc1nnc(NC(=O)c2nnc(N3CCC(O)C3)o2)s1 (stereo not shown) [Compound 116, 5-(3-hydroxypyrrolidin-1-yl)-N-[5-(methylsulfanyl)-1,3,4-thiadiazol-2-yl]-1,3,4-oxadiazole-2-carboxamide]
100 to 500 nM	Cc1cc(C(=O)Nc2nnc(-c3ccccc3Cl)s2)on1 [Compound 36, N-(5-(2-chlorophenyl)-1,3,4-thiadiazol-2-yl)-3-methylisoxazole-5-carboxamide]
500 to 1000 nM	CSc1nnc(NC(=O)c2cc(-c3cccc4c3CCC4)no2)s1 [Compound 68, 3-(2,3-dihydro-1H-inden-4-yl)-N-(5-(methylthio)-1,3,4-thiadiazol-2-yl)isoxazole-5-carboxamide]
≥ 1000 nM	CSc1nnc(NC(=O)c2onc3c2CN(C(=O)OC(C)(C)C)CC3)s1 [Compound 43, tert-butyl 3-((5-(methylthio)-1,3,4-thiadiazol-2-yl)carbamoyl)-6,7-dihydroisoxazolo[4,3-c]pyridine-5(4H)-carboxylate]
